{"source": "patent US20250352520A1", "about": "“USE OF DEXPRAMIPEXOLE FOR THE TREATMENT OF EOSINOPHILIC COPD” (Areteia Therapeutics, Inc., priority 2024, published 2025)", "conditions": "Week 8; >=50% AEC reduction at Week 16"}
{"smiles": "CCCN[C@@H]1CCc2nc(N)sc2C1", "note": "[Dexpramipexole, (6R)-2-amino-4,5,6,7-tetrahydro-6-(propylamino)benzothiazole]", "values": [{"measurement": "Pre-BD FEF25-75 % change from baseline, Max", "value": 38, "unit": "%"}, {"measurement": "Pre-BD FEF25-75 % change from baseline, Mean ± SD", "value": "10.2 ± 27.88", "unit": "%"}, {"measurement": "Pre-BD FEF25-75 % change from baseline, Median", "value": 9.5, "unit": "%"}, {"measurement": "Pre-BD FEF25-75 % change from baseline, Min", "value": "−17", "unit": "%"}, {"measurement": "Pre-BD FEF25-75 % change from baseline, Q1", "value": "−17", "unit": "%"}, {"measurement": "Pre-BD FEF25-75 % change from baseline, Q3", "value": 38, "unit": "%"}, {"measurement": "Pre-BD FEF25-75 Observed, Max", "value": 1010, "unit": "mL/s"}, {"measurement": "Pre-BD FEF25-75 Observed, Mean ± SD", "value": "666.7 ± 398.29", "unit": "mL/s"}, {"measurement": "Pre-BD FEF25-75 Observed, Median", "value": 760.0, "unit": "mL/s"}, {"measurement": "Pre-BD FEF25-75 Observed, Min", "value": 230, "unit": "mL/s"}, {"measurement": "Pre-BD FEF25-75 Observed, Q1", "value": 230, "unit": "mL/s"}, {"measurement": "Pre-BD FEF25-75 Observed, Q3", "value": 1010, "unit": "mL/s"}, {"measurement": "Pre-BD FEF25-75 change from baseline, Max", "value": 280, "unit": "mL/s"}, {"measurement": "Pre-BD FEF25-75 change from baseline, Mean ± SD", "value": "46.7 ± 221.21", "unit": "mL/s"}, {"measurement": "Pre-BD FEF25-75 change from baseline, Median", "value": 20.0, "unit": "mL/s"}, {"measurement": "Pre-BD FEF25-75 change from baseline, Min", "value": -160, "unit": "mL/s"}, {"measurement": "Pre-BD FEF25-75 change from baseline, Q1", "value": -160, "unit": "mL/s"}, {"measurement": "Pre-BD FEF25-75 change from baseline, Q3", "value": 280, "unit": "mL/s"}, {"measurement": "Pre-BD FEV1 % change from baseline, Max", "value": 53, "unit": "%"}, {"measurement": "Pre-BD FEV1 % change from baseline, Mean ± SD", "value": "18.7 ± 30.56", "unit": "%"}, {"measurement": "Pre-BD FEV1 % change from baseline, Median", "value": 8.3, "unit": "%"}, {"measurement": "Pre-BD FEV1 % change from baseline, Min", "value": "−5", "unit": "%"}, {"measurement": "Pre-BD FEV1 % change from baseline, Q1", "value": "−5", "unit": "%"}, {"measurement": "Pre-BD FEV1 % change from baseline, Q3", "value": 53, "unit": "%"}, {"measurement": "Pre-BD FEV1 Observed, Max", "value": 1990, "unit": "mL"}, {"measurement": "Pre-BD FEV1 Observed, Mean ± SD", "value": "1453.3 ± 616.47", "unit": "mL"}, {"measurement": "Pre-BD FEV1 Observed, Median", "value": 1590.0, "unit": "mL"}, {"measurement": "Pre-BD FEV1 Observed, Min", "value": 780, "unit": "mL"}, {"measurement": "Pre-BD FEV1 Observed, Q1", "value": 780, "unit": "mL"}, {"measurement": "Pre-BD FEV1 Observed, Q3", "value": 1990, "unit": "mL"}, {"measurement": "Pre-BD FEV1 change from baseline, Max", "value": 690, "unit": "mL"}, {"measurement": "Pre-BD FEV1 change from baseline, Mean ± SD", "value": "220.0 ± 413.88", "unit": "mL"}, {"measurement": "Pre-BD FEV1 change from baseline, Median", "value": 60.0, "unit": "mL"}, {"measurement": "Pre-BD FEV1 change from baseline, Min", "value": -90, "unit": "mL"}, {"measurement": "Pre-BD FEV1 change from baseline, Q1", "value": -90, "unit": "mL"}, {"measurement": "Pre-BD FEV1 change from baseline, Q3", "value": 690, "unit": "mL"}, {"measurement": "Pre-BD FVC % change from baseline, Max", "value": 24, "unit": "%"}, {"measurement": "Pre-BD FVC % change from baseline, Mean ± SD", "value": "8.8 ± 13.54", "unit": "%"}, {"measurement": "Pre-BD FVC % change from baseline, Median", "value": 3.3, "unit": "%"}, {"measurement": "Pre-BD FVC % change from baseline, Min", "value": "−1", "unit": "%"}, {"measurement": "Pre-BD FVC % change from baseline, Q1", "value": "−1", "unit": "%"}, {"measurement": "Pre-BD FVC % change from baseline, Q3", "value": 24, "unit": "%"}, {"measurement": "Pre-BD FVC Observed, Max", "value": 3130, "unit": "mL"}, {"measurement": "Pre-BD FVC Observed, Mean ± SD", "value": "2626.7 ± 477.53", "unit": "mL"}, {"measurement": "Pre-BD FVC Observed, Median", "value": 2570.0, "unit": "mL"}, {"measurement": "Pre-BD FVC Observed, Min", "value": 2180, "unit": "mL"}, {"measurement": "Pre-BD FVC Observed, Q1", "value": 2180, "unit": "mL"}, {"measurement": "Pre-BD FVC Observed, Q3", "value": 3130, "unit": "mL"}, {"measurement": "Pre-BD FVC change from baseline, Max", "value": 610, "unit": "mL"}, {"measurement": "Pre-BD FVC change from baseline, Mean ± SD", "value": "216.7 ± 344.29", "unit": "mL"}, {"measurement": "Pre-BD FVC change from baseline, Median", "value": 70.0, "unit": "mL"}, {"measurement": "Pre-BD FVC change from baseline, Min", "value": -30, "unit": "mL"}, {"measurement": "Pre-BD FVC change from baseline, Q1", "value": -30, "unit": "mL"}, {"measurement": "Pre-BD FVC change from baseline, Q3", "value": 610, "unit": "mL"}, {"measurement": "Pre-BD Peak Flow % change from baseline, Max", "value": 90, "unit": "%"}, {"measurement": "Pre-BD Peak Flow % change from baseline, Mean ± SD", "value": "25.2 ± 58.36", "unit": "%"}, {"measurement": "Pre-BD Peak Flow % change from baseline, Median", "value": 9.6, "unit": "%"}, {"measurement": "Pre-BD Peak Flow % change from baseline, Min", "value": "−24", "unit": "%"}, {"measurement": "Pre-BD Peak Flow % change from baseline, Q1", "value": "−24", "unit": "%"}, {"measurement": "Pre-BD Peak Flow % change from baseline, Q3", "value": 90, "unit": "%"}, {"measurement": "Pre-BD Peak Flow Observed, Max", "value": 298, "unit": "L/min"}, {"measurement": "Pre-BD Peak Flow Observed, Mean ± SD", "value": "197.7 ± 87.79", "unit": "L/min"}, {"measurement": "Pre-BD Peak Flow Observed, Median", "value": 160.0, "unit": "L/min"}, {"measurement": "Pre-BD Peak Flow Observed, Min", "value": 135, "unit": "L/min"}, {"measurement": "Pre-BD Peak Flow Observed, Q1", "value": 135, "unit": "L/min"}, {"measurement": "Pre-BD Peak Flow Observed, Q3", "value": 298, "unit": "L/min"}, {"measurement": "Pre-BD Peak Flow change from baseline, Max", "value": 141, "unit": "L/min"}, {"measurement": "Pre-BD Peak Flow change from baseline, Mean ± SD", "value": "37.7 ± 93.77", "unit": "L/min"}, {"measurement": "Pre-BD Peak Flow change from baseline, Median", "value": 14.0, "unit": "L/min"}, {"measurement": "Pre-BD Peak Flow change from baseline, Min", "value": -42, "unit": "L/min"}, {"measurement": "Pre-BD Peak Flow change from baseline, Q1", "value": -42, "unit": "L/min"}, {"measurement": "Pre-BD Peak Flow change from baseline, Q3", "value": 141, "unit": "L/min"}]}
